Data published in ChEMBL document CHEMBL5537151, “Design, synthesis and bioactivity evaluation of novel fusion peptides and their CPT conjugates inducing effective anti-tumor responses on HER2 positive tumors” (Eur J Med Chem, 2024).
The source made the active and inactive calls. The calls are words filed in the database; no cut-off is given here. Peptide text beside a SMILES is read from it. * marks the point of attachment. X1 = CCC1(C(=O)OCCS*)C(=O)OCc2c1cc1n(c2=O)Cc2cc3ccccc3nc2-1

Columns and labels:
[1] = Toxicity in nude mouse xenografted with human SK-BR-3 cells assessed as increase in AST level at 8 umol/kg, iv administered every 3 days for 14 days; format: organism-based; details: in vivo, 336 h, dose 8 µmol/kg, time 14 day
[2] = system: SK-BR-3; experiment: Induction of apoptosis in human SK-BR-3 cells assessed as downregulation of XIAP protein expression at 2.5 uM by Western blot analysis; format: functional, cell-based; details: time 24-48 hrs, TDE = time-dependent effect
[3] = system: SK-OV-3; experiment: cells; details: Homo sapiens, SK-OV-3, 48 h
Description: Cytotoxicity against HER-positive human SK-OV-3 cells incubated for 48 hrs by CCK-8 assay

[4] = system: SK-BR-3; experiment: Induction of apoptosis in human SK-BR-3 cells assessed as downregulation of XIAP protein expression at 2.5 to 5 uM incubated for 24 hrs by Western blot analysis; format: functional, cell-based; details: dose 2.5-5 µM
[5] = system: SK-BR-3; experiment: Antitumor activity against human SK-BR-3 cells xenografted in nude mouse assessed as inhibition of tumor growth at 8 umol/kg, iv administered every 3 days for 14 days and measured every 2 days by vernier caliper analysis; format: functional, organism-based; details: dose 8.0 µmol/kg, time 14.0 day
[6] = Toxicity in nude mouse xenografted with human SK-BR-3 cells assessed as cell necrosis in spleen at 8 umol/kg, iv administered every 3 days for 14 days by H and E staining based analysis; format: organism-based; details: in vivo, 336 h, dose 8 µmol/kg, time 14 day
[7] = Toxicity in nude mouse xenografted with human SK-BR-3 cells assessed as cell necrosis in lung at 8 umol/kg, iv administered every 3 days for 14 days by H and E staining based analysis; format: organism-based; details: in vivo, 336 h, dose 8 µmol/kg, time 14 day
[8] = Toxicity in nude mouse xenografted with human SK-BR-3 cells assessed as cell necrosis in liver at 8 umol/kg, iv administered every 3 days for 14 days by H and E staining based analysis; format: organism-based; details: in vivo, 336 h, dose 8 µmol/kg, time 14 day
[9] = system: SK-BR-3; experiment: Induction of apoptosis in human SK-BR-3 cells assessed as necrotic cells at 1 uM incubated for 24 hrs by Annexin V-FITC/PI staining based flow cytometry analysis (reference value: 1.49%); format: functional
[10] = Cytotoxicity against HER-negative human MCF-10A cells incubated for 48 hrs by CCK-8 assay; format: toxicity, cell-based
[11] = Toxicity in nude mouse xenografted with human SK-BR-3 cells assessed as change in globulin level at 8 umol/kg, iv administered every 3 days for 14 days; format: organism-based; details: in vivo, 336 h, dose 8 µmol/kg, time 14 day
[12] = Toxicity in nude mouse xenografted with human SK-BR-3 cells assessed as change in total protein level at 8 umol/kg, iv administered every 3 days for 14 days; format: organism-based; details: in vivo, 336 h, dose 8 µmol/kg, time 14 day
[13] = system: SK-BR-3; experiment: Induction of apoptosis in human SK-BR-3 cells assessed as increase in ROS level by flow cytometry analysis; format: functional, cell-based
[14] = system: SK-BR-3; experiment: Induction of apoptosis in human SK-BR-3 cells assessed as early apoptotic cells at 1 uM incubated for 24 hrs by Annexin V-FITC/PI staining based flow cytometry analysis (reference value: 2.80%); format: functional
[15] = Toxicity in nude mouse xenografted with human SK-BR-3 cells assessed as inflammatory cell infiltration in liver at 8 umol/kg, iv administered every 3 days for 14 days by H and E staining based analysis; format: organism-based; details: in vivo, 336 h, dose 8 µmol/kg, time 14 day
[16] = Toxicity in nude mouse xenografted with human SK-BR-3 cells assessed as inflammatory cell infiltration in spleen at 8 umol/kg, iv administered every 3 days for 14 days by H and E staining based analysis; format: organism-based; details: in vivo, 336 h, dose 8 µmol/kg, time 14 day
[17] = system: SK-BR-3; experiment: cells; details: Homo sapiens, SK-BR-3, 48 h
Description: Cytotoxicity against HER-positive human SK-BR-3 cells incubated for 48 hrs by CCK-8 assay

[18] = Toxicity in nude mouse xenografted with human SK-BR-3 cells assessed as change in albumin level at 8 umol/kg, iv administered every 3 days for 14 days; format: organism-based; details: in vivo, 336 h, dose 8 µmol/kg, time 14 day
[19] = Drug release in human SK-BR-3 cells assessed as cathepsin-mediated SMAC polypeptide release at 10 uM incubated for 6 hrs by FITC/Lysotracker red dye based laser confocal microscopic analysis; format: ADME, cell-based; details: sk-br-3, 6 h
[20] = Drug localization in lysosome of human SK-BR-3 cells assessed as increase in red fluorescence of lysosomal dye at 10 uM incubated for 6 hrs by FITC/Lysotracker red dye based laser confocal microscopic analysis; format: ADME, subcellular; details: sk-br-3, 6 h
[21] = system: MDA-MB-231; experiment: cells; details: Homo sapiens, MDA-MB-231, 48 h
Description: Cytotoxicity against HER-negative human MDA-MB-231 cells incubated for 48 hrs by CCK-8 assay

[22] = Toxicity in nude mouse xenografted with human SK-BR-3 cells assessed as change in blood urea nitrogen level at 8 umol/kg, iv administered every 3 days for 14 days; format: organism-based; details: in vivo, 336 h, dose 8 µmol/kg, time 14 day
[23] = system: NCI-N87; experiment: cells; details: Homo sapiens, NCI-N87, 48 h
Description: Cytotoxicity against HER-positive human NCI-N87 cells incubated for 48 hrs by CCK-8 assay

[24] = system: SK-BR-3; experiment: Induction of apoptosis in human SK-BR-3 cells assessed as late apoptotic cells at 1 uM incubated for 24 hrs by Annexin V-FITC/PI staining based flow cytometry analysis (reference value: 1.11%); format: functional
[25] = system: SK-BR-3; experiment: Induction of apoptosis in human SK-BR-3 cells assessed as live cells at 1 uM incubated for 24 hrs by Annexin V-FITC/PI staining based flow cytometry analysis (reference value: 94.6%); format: functional
[26] = system: SK-BR-3; experiment: Induction of apoptosis in human SK-BR-3 cells assessed as downregulation of cIAP1 protein expression at 2.5 uM by Western blot analysis; format: functional, cell-based; details: time 24-48 hrs, TDE = time-dependent effect
[27] = Drug localization in lysosome of human SK-BR-3 cells assessed as increase in green fluorescence of FITC at 10 uM incubated for 6 hrs by FITC/Lysotracker red dye based laser confocal microscopic analysis; format: ADME, subcellular; details: sk-br-3, 6 h
[28] = Toxicity in nude mouse xenografted with human SK-BR-3 cells assessed as change in creatinine level at 8 umol/kg, iv administered every 3 days for 14 days; format: organism-based; details: in vivo, 336 h, dose 8 µmol/kg, time 14 day
[29] = Toxicity in nude mouse xenografted with human SK-BR-3 cells assessed as cell necrosis in heart at 8 umol/kg, iv administered every 3 days for 14 days by H and E staining based analysis; format: organism-based; details: in vivo, 336 h, dose 8 µmol/kg, time 14 day
[30] = Toxicity in nude mouse xenografted with human SK-BR-3 cells assessed as inflammatory cell infiltration in kidney at 8 umol/kg, iv administered every 3 days for 14 days by H and E staining based analysis; format: organism-based; details: in vivo, 336 h, dose 8 µmol/kg, time 14 day
[31] = Toxicity in nude mouse xenografted with human SK-BR-3 cells assessed as change in alkaline phosphatase level at 8 umol/kg, iv administered every 3 days for 14 days; format: organism-based; details: in vivo, 336 h, dose 8 µmol/kg, time 14 day
[32] = Toxicity in nude mouse xenografted with human SK-BR-3 cells assessed as inflammatory cell infiltration in lung at 8 umol/kg, iv administered every 3 days for 14 days by H and E staining based analysis; format: organism-based; details: in vivo, 336 h, dose 8 µmol/kg, time 14 day
[33] = Toxicity in nude mouse xenografted with human SK-BR-3 cells assessed as cell necrosis in kidney at 8 umol/kg, iv administered every 3 days for 14 days by H and E staining based analysis; format: organism-based; details: in vivo, 336 h, dose 8 µmol/kg, time 14 day
[34] = Toxicity in nude mouse xenografted with human SK-BR-3 cells assessed as inflammatory cell infiltration in heart at 8 umol/kg, iv administered every 3 days for 14 days by H and E staining based analysis; format: organism-based; details: in vivo, 336 h, dose 8 µmol/kg, time 14 day
[35] = Drug release in human SK-BR-3 cells assessed as cathepsin-mediated camptothecin release by measuring increase in blue fluorescence at 10 uM incubated for 6 hrs by FITC/Lysotracker red dye based laser confocal microscopic analysis; format: ADME, cell-based; details: sk-br-3, 6 h
[36] = system: SK-BR-3; experiment: Induction of apoptosis in human SK-BR-3 cells assessed as downregulation of cIAP1 protein expression at 2.5 to 5 uM incubated for 24 hrs by Western blot analysis; format: functional, cell-based; details: dose 2.5-5 µM

## CC[C@H](C)[C@H](NC(=O)[C@@H]1CCCN1C(=O)[C@@H](NC(=O)[C@H](C)N)C(C)C)C(=O)N[C@@H](C)C(=O)N[C@@H](CCC(N)=O)C(=O)N[C@@H](CCCCN)C(=O)N[C@@H](CSSCCOC(=O)C1(CC)C(=O)OCc2c1cc1n(c2=O)Cc2cc3ccccc3nc2-1)C(=O)NCC(=O)N[C@@H](Cc1ccccc1)C(=O)N[C@@H](CC(C)C)C(=O)NCC(=O)N[C@@H](CC(N)=O)C(=O)N1CCC[C@H]1C(=O)N[C@@H](CC(N)=O)C(=O)N[C@@H](Cc1c[nH]c2ccccc12)C(=O)NCC(=O)N[C@@H](CCCNC(=N)N)C(=O)N[C@@H](CO)C(=O)N[C@@H](Cc1c[nH]c2ccccc12)C(=O)N[C@@H](Cc1ccc(O)cc1)C(=O)N[C@@H](CC(N)=O)C(=O)N[C@@H](CCC(N)=O)C(=O)N[C@@H](CCCNC(=N)N)C(=O)N[C@@H](Cc1ccccc1)C(=O)N[C@@H](CCCCN)C(N)=O (stereo partly specified) (H-AVPIAQKC(X1)GFLGNPNWGRSWYNQRFK-NH2)
[1]
  Activity: Toxic
[2]
  Activity: Tde
[3]
  IC50: 2500 nM
[4]
  Activity: Active
[5]
  Activity: Active
[6]
  Activity: Non-Toxic
[7]
  Activity: Non-Toxic
[8]
  Activity: Non-Toxic
[9]
  Activity: 3.42%
[10]
  IC50 at 48 h: 17800 nM
[11]
  Activity: Non-Toxic
[12]
  Activity: Non-Toxic
[13]
  Activity: Active
[14]
  Activity: 26%
[15]
  Activity: Non-Toxic
[16]
  Activity: Non-Toxic
[17]
  IC50: 530 nM
[18]
  Activity: Non-Toxic
[19]
  Drug metabolism: Metabolite_Detected
[20]
  Drug uptake: Active
[21]
  IC50: 18400 nM
[22]
  Activity: Non-Toxic
[23]
  IC50: 1580 nM
[24]
  Activity: 9.46%
[25]
  Activity: 61.1%
[26]
  Activity: Tde
[27]
  Drug uptake: Active
[28]
  Activity: Non-Toxic
[29]
  Activity: Non-Toxic
[30]
  Activity: Non-Toxic
[31]
  Activity: Non-Toxic
[32]
  Activity: Non-Toxic
[33]
  Activity: Non-Toxic
[34]
  Activity: Non-Toxic
[35]
  Drug metabolism: Metabolite_Detected
[36]
  Activity: Active
